Molecules are shown by their SMILES. Counter-ions that a name gives are not always drawn.

Data set [1] addresses T1, 5-HT2A (Rattus norvegicus, UniProt P14842). Nature of the data set: 5-HT2 Functional Assay: [Ca2+]i Mobilization (FLIPR). The arrangement: endogenous in cells; host or cells: A7r5 rat vascular smooth muscle cells. The class given is cell-based. Particulars: for EC50: [Ca2+]i mobilization, A7r5 rat vascular smooth muscle cells; for Emax: percentage of a maximum 5-HT-induced response, A7r5 cells. On the procedure: 5-HT2 Functional Assay: [Ca^2+]i Mobilization
The receptor-mediated mobilization on intracellular calcium ([Ca^2+]i) was studied using the Fluorescence Imaging Plate Reader (FLIPR) instrument. Rat vascular smooth muscle cells, A7r5, were grown in a normal media of DMEM/10% FBS and 10 μg/mL gentamycin. Confluent cell monolayers were trypsinized, pelleted, and re-suspended in normal media. Cells were seeded in a 50 μL volume at a density of 20,000 cells/well in a black wall, 96-well tissue culture plate and grown for 2 days.
On the day of the experiment, one vial of FLIPR Calcium Assay Kit dye was re-suspended in 50 mL of a FLIPR buffer consisting of Hank's Balanced Salt Solution (HBSS), 20 mM HEPES, and 2.5 mM probenecid, pH 7.4. Cells were loaded with the calcium-sensitive dye by addition of an equal volume ([…]) to each well of the 96-well plate and incubated with dye for 1 h at 23° C.
Typically, test compounds were stored at 25 μM in 50% DMSO/50% Ethanol solvent. Compounds were diluted 1:50 in 20% DMSO/20% Ethanol. For “hit” screening, compounds were further diluted 1:10 in FLIPR buffer and tested at a final concentration of 10 μM. For dose-response experiments, compounds were diluted 1:50 in FLIPR buffer and serially diluted 1:10 to give a 5- or 8-point dose-response curve.
The compound plate and cell plate were placed in the FLIPR instrument. At the beginning of an experimental run, a signal test was performed to check the basal fluorescence signal from the dye-loaded cells and the uniformity of the signal across the plate. The basal fluorescence was adjusted between 8000-12000 counts by modifying the exposure time, the camera F-stop, or the laser power. Instrument settings for a typical assay were the following: laser power 0.3-0.6 W, camera F-stop F/2, and exposure time 0.4 sec. An aliquot (25 μL) of the test compound was added to the existing 100 μL dye-loaded cells at a dispensing speed of 50 μL/sec. Fluorescence data were collected in real-time at 1.0 sec intervals for the first 60 secs and at 6.0 sec intervals for an additional 120 secs. Responses were measured as peak fluorescence intensity minus basal and where appropriate were expressed as a percentage of a maximum 5-HT-induced response [Emax %]. When the compounds were tested as antagonists against 10 μM 5-HT, they were incubated with the cells for 15 minutes prior to the addition of 5-HT.

Data set [2] has as its target T1, 5-HT2A. Nature of the data set: 5-HT2 Receptor Binding Assay ([125I]DOI competition). Conditions: [125I]DOI binding, post mortem rat or human cerebral cortex homogenates. On the procedure: 5-HT2 Receptor Binding Assay
Aliquots of post mortem rat or human cerebral cortex homogenates (400 μL) dispersed in 50 mM Tris HCl buffer (pH 7.4) are incubated with [^125I]DOI (80 pM final) in the absence or presence of methiothepin (10 μM final) to define total and non-specific binding, respectively, in a total volume of 0.5 mL. The assay mixture is incubated for 1 hour at 23° C. in polypropylene tubes and the assays terminated by rapid vacuum filtration over Whatman GF/13 glass fiber filters previously soaked in 0.3% polyethyleneimine using ice-cold buffer. Test compounds (at different concentrations) are substituted for methiothepin. Filter-bound radioactivity is determined by scintillation spectrometry on a beta counter. The data are analyzed using a non-linear, iterative curve-fitting computer program [Trends Pharmacol. Sci., 16, 413 (1995)] to determine the compound affinity parameter. The concentration of the compound needed to inhibit the [^125I]DOI binding by 50% of the maximum is termed the […].

T1 sequence (P14842 whole entry): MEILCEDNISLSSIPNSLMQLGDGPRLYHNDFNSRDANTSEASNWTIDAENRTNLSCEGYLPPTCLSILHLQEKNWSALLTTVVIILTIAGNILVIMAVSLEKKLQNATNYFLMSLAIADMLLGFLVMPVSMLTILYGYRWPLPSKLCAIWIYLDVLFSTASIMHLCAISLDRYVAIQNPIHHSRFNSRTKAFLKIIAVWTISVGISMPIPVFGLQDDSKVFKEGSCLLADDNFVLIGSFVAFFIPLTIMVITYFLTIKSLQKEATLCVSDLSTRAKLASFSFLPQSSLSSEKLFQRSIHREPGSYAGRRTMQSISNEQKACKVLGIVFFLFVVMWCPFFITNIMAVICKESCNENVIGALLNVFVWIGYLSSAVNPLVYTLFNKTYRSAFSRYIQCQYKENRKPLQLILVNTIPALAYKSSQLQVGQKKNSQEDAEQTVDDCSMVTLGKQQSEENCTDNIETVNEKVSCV

What is called EC50 is the concentration giving half of the maximal effect. For orientation: Emax means the maximal effect, on the per cent scale that the assay sets. The IC50 is the midpoint of a concentration-inhibition curve. Consider `CCOC(=O)c1ccc2cnn(C[C@H](C)N)c2c1` [Example 1, 1-((S)-2-Aminopropyl)-1H-indazole-6-carboxylic acid ethyl ester], for which, on 5-HT2A [1], the EC50 came to 837 nM and the Emax came to 86%. This compound also showed an IC50 on 5-HT2A [2] of 10 nM.
The melting point is the temperature of the solid-liquid transition. `CCOC(=O)c1ccc2cnn(C[C@H](C)N)c2c1` (as salt: fumaric acid salt) [Example 1, 1-((S)-2-Aminopropyl)-1H-indazole-6-carboxylic acid ethyl ester] showed a melting point of 150 to 152 °C.
In turn, `C[C@H](N)Cn1ncc2ccc(C(N)=O)cc21` [Example 2, 1-((S)-2-Aminopropyl)-1H-indazole-6-carboxylic acid amide] displayed a melting point of 170 to 172 °C. Also, at 5-HT2A [1], a half-maximal effect (EC50) was put at 465 nM and the Emax stood at 90%. The 50% inhibitory concentration (IC50) at 5-HT2A [2] turned out to be 5.9 nM.
